From PubChem BioAssay (NCI)
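Step 1: Grow cells in 96-well plates. Step 2: Expose to compound for 48 hours at 5 concentrations. Step 3: Interpolate endpoints linearly; if unreached, use highest concentration. Abbreviation: GI50, concentration required for 50% inhibition of growth. TGI: total growth inhibition.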

How the values were obtained:
Experiment in all cases: inhibition of tumour cell growth, NCI panel, 48 h
[1] = system: 786-0 renal
[2] = system: A498 renal
[3] = system: A549 NSCLC
[4] = system: ACHN renal
[5] = system: BT-549 breast
[6] = system: CAKI-1 renal
[7] = system: CCRF-CEM leukemia
[8] = system: COLO 205 colon
[9] = system: DU-145 prostate
[10] = system: EKVX NSCLC
[11] = system: HCC-2998 colon
[12] = system: HCT-116 colon
[13] = system: HCT-15 colon
[14] = system: HL-60(TB) leukemia
[15] = system: HOP-62 NSCLC
[16] = system: HOP-92 NSCLC
[17] = system: HS 578T breast
[18] = system: HT29 colon
[19] = system: IGROV1 ovarian
[20] = system: K-562 leukemia
[21] = system: KM12 colon
[22] = system: LOX IMVI melanoma
[23] = system: M14 melanoma
[24] = system: MALME-3M melanoma
[25] = system: MCF7 breast
[26] = system: MDA-MB-231 breast
[27] = system: MDA-MB-435
[28] = system: MOLT-4 leukemia
[29] = system: NCI-H226 lung
[30] = system: NCI-H23 lung
[31] = system: NCI-H460 lung
[32] = system: NCI-H522 lung
[33] = system: NCI/ADR-RES ovarian
[34] = system: OVCAR-4 ovarian
[35] = system: OVCAR-5 ovarian
[36] = system: OVCAR-8 ovarian
[37] = system: PC-3 prostate
[38] = system: RPMI-8226 leukemia
[39] = system: RXF 393 renal
[40] = system: SF-268 CNS
[41] = system: SF-295 CNS
[42] = system: SF-539 CNS
[43] = system: SK-MEL-2 melanoma
[44] = system: SK-MEL-28 melanoma
[45] = system: SK-MEL-5 melanoma
[46] = system: SK-OV-3 ovarian
[47] = system: SN12C renal
[48] = system: SNB-19 CNS
[49] = system: SNB-75 CNS
[50] = system: SR leukemia
[51] = system: SW-620 colon
[52] = system: T-47D breast
[53] = system: TK-10 renal
[54] = system: U251 CNS
[55] = system: UACC-257 melanoma
[56] = system: UACC-62 melanoma
[57] = system: UO-31 renal

## CCN(CC)CCCC(C)NCC(=O)NC(c1ccc2c(c1)OCO2)c1cc(Cl)c2cccnc2c1O (centres undefined)
[1]
  GI50: 2.3 µM
  TGI: 5.75 µM
[2]
  GI50: 2.35 µM
  TGI: 6.69 µM
[3]
  GI50: 2.83 µM
  TGI: 13.4 µM
[4]
  GI50: 2.79 µM
  TGI: 10.1 µM
[5]
  GI50: 4.78 µM
  TGI: 17.1 µM
[6]
  GI50: 1.77 µM
  TGI: 4.41 µM
[7]
  GI50: 0.909 µM
  TGI: 12.2 µM
[8]
  GI50: 2.36 µM
  TGI: 8.42 µM
[9]
  GI50: 2.63 µM
  TGI: 15.7 µM
[10]
  GI50: 1.65 µM
  TGI: 11 µM
[11]
  GI50: 1.73 µM
  TGI: 4.13 µM
[12]
  GI50: 1.41 µM
  TGI: 11.2 µM
[13]
  GI50: 2.44 µM
  TGI: 11.9 µM
[14]
  GI50: 1.29 µM
  TGI: 4.41 µM
[15]
  GI50: 1.56 µM
  TGI: 6.88 µM
[16]
  GI50: 1.62 µM
  TGI: 8.17 µM
[17]
  GI50: 4.37 µM
  TGI: 22.6 µM
[18]
  GI50: 2.41 µM
  TGI: 10.4 µM
[19]
  GI50: 2.53 µM
  TGI: 10.8 µM
[20]
  GI50: 0.895 µM
  TGI: 9.33 µM
[21]
  GI50: 2.41 µM
  TGI: 9.78 µM
[22]
  GI50: 1.22 µM
  TGI: 3.13 µM
[23]
  GI50: 1.42 µM
  TGI: 3.27 µM
[24]
  GI50: 1.68 µM
  TGI: 3.29 µM
[25]
  GI50: 1.59 µM
  TGI: 10.6 µM
[26]
  GI50: 1.35 µM
  TGI: 11.9 µM
[27]
  GI50: 1.81 µM
  TGI: 3.87 µM
[28]
  GI50: 0.626 µM
  TGI: 11.2 µM
[29]
  GI50: 2.12 µM
  TGI: 6.71 µM
[30]
  GI50: 2.99 µM
  TGI: 11.2 µM
[31]
  GI50: 1.48 µM
  TGI: 6.45 µM
[32]
  GI50: 2.36 µM
  TGI: 6.97 µM
[33]
  GI50: 3.31 µM
  TGI: 15.5 µM
[34]
  GI50: 1.39 µM
  TGI: 14.7 µM
[35]
  GI50: 2.73 µM
  TGI: 15.5 µM
[36]
  GI50: 2.56 µM
  TGI: 13.1 µM
[37]
  GI50: 2.03 µM
  TGI: 12 µM
[38]
  GI50: 2.36 µM
  TGI: 7.77 µM
[39]
  GI50: 2.33 µM
  TGI: 10.3 µM
[40]
  GI50: 2.21 µM
  TGI: 10.6 µM
[41]
  GI50: 1.56 µM
  TGI: 3.41 µM
[42]
  GI50: 1.85 µM
  TGI: 4.05 µM
[43]
  GI50: 2.37 µM
  TGI: 6.33 µM
[44]
  GI50: 1.47 µM
  TGI: 3.08 µM
[45]
  GI50: 1.67 µM
  TGI: 3.11 µM
[46]
  GI50: 2.93 µM
  TGI: 8.45 µM
[47]
  GI50: 3.15 µM
  TGI: 13.7 µM
[48]
  GI50: 3.23 µM
  TGI: 15.2 µM
[49]
  GI50: 2.18 µM
  TGI: 8.73 µM
[50]
  GI50: 0.897 µM
  TGI: 5.61 µM
[51]
  GI50: 2.32 µM
  TGI: 11.9 µM
[52]
  GI50: 2.89 µM
  TGI: 9.19 µM
[53]
  GI50: 3.36 µM
  TGI: 15.1 µM
[54]
  GI50: 2.1 µM
  TGI: 13 µM
[55]
  GI50: 1.92 µM
  TGI: 4.18 µM
[56]
  GI50: 1.83 µM
  TGI: 3.6 µM
[57]
  GI50: 2.02 µM
  TGI: 7.16 µM
